Patent publication US10385037B2, “4′-O-substituted isoindoline derivatives and compositions comprising and methods of using the same” (Celgene Corporation, priority 2007, dated 2019)

| Structure (SMILES) | melting point |
| --- | --- |
| CS(=O)(=O)c1ccc(COc2cccc3c2C(=O)N(C2CCC(=O)NC2=O)C3=O)cc1 (stereo not drawn) [Example 11, 2-(2,6-Dioxo-piperidin-3-yl)-4-(4-methanesulfonyl-benzyloxy)-isoindole-1,3-dione] | 293 to 295 °C |
| COc1cccc(COc2cccc3c2C(=O)N(C2CCC(=O)NC2=O)C3=O)c1 (stereo not drawn) [Example 12, 2-(2,6-Dioxo-piperidin-3-yl)-4-(3-methoxy-benzyloxy)-isoindole-1,3-dione] | 197 to 201 °C |
| O=C1CCC(N2C(=O)c3cccc(OCc4ccc5c(c4)OCO5)c3C2=O)C(=O)N1 (stereo not drawn) [Example 13, 4-(Benzo[1,3]dioxol-5-ylmethoxy)-2-(2,6-dioxo-piperidin-3-yl)-isoindole-1,3-dione] | 229 to 231 °C |
| O=C1CCC(N2C(=O)c3cccc(OCc4ccc5ccccc5c4)c3C2=O)C(=O)N1 (stereo not drawn) [Example 14, 2-(2,6-Dioxo-piperidin-3-yl)-(naphthalene-2-ylmethoxy)-isoindole-1,3-dione] | > 260 °C |
| O=C1CCC(N2C(=O)c3cccc(OCc4cnc5ccccc5c4)c3C2=O)C(=O)N1 (stereo not drawn) [Example 15, 2-(2,6-Dioxo-piperidin-3-yl)-4-(quinolin-3-ylmethoxy)-isoindole-1,3-dione] | 263 to 265 °C |
| O=C1CCC(N2C(=O)c3cccc(OCc4ccc5ccccc5n4)c3C2=O)C(=O)N1 (stereo not drawn) [Example 16, 2-(2,6-Dioxo-piperidin-3-yl)-(quinolin-2-ylmethoxy)-isoindole-1,3-dione] | 254 to 256 °C |
| O=C1CCC(N2C(=O)c3cccc(OCc4cc5ccccc5o4)c3C2=O)C(=O)N1 (stereo not drawn) [Example 17, 4-(Benzofuran-2-ylmethoxy)-2-(2,6-dioxo-piperidin-3-yl)-isoindole-1,3-dione] | 234 to 236 °C |
| O=C1CCC(N2C(=O)c3cccc(OCc4cc5ccccc5s4)c3C2=O)C(=O)N1 (stereo not drawn) [Example 18, 4-(Benzo[b]thiophen-2-ylmethoxy)-2-(2,6-dioxo-piperidin-3-yl)-isoindole-1,3-dione] | 247 to 249 °C |
| O=C1CCC(N2C(=O)c3cccc(OCc4ccco4)c3C2=O)C(=O)N1 (stereo not drawn) [Example 19, 2-(2,6-Dioxo-piperidin-3-yl)-4-(furan-2-ylmethoxy)-isoindole-1,3-dione] | 184 to 186 °C |
| O=C1CCC(N2C(=O)c3cccc(OCc4sc5ccccc5c4Cl)c3C2=O)C(=O)N1 (stereo not drawn) [Example 20, 4-(3-Chloro-benzo[b]thiophen-2-ylmethoxy)-2-(2,6-dioxo-piperidin-3-yl)-isoindole-1,3-dione] | 240 to 242 °C |
| O=C1CCC(N2C(=O)c3cccc(OCc4cc5c(F)cccc5s4)c3C2=O)C(=O)N1 (stereo not drawn) [Example 21, 2-(2,6-Dioxo-piperidin-3-yl)-4-(4-fluoro-benzo[b]thiophen-2-ylmethoxy)-isoindole-1,3-dione] | 264 to 266 °C |
| O=C1CCC(N2C(=O)c3cccc(OCc4ccc(Cl)s4)c3C2=O)C(=O)N1 (stereo not drawn) [Example 22] | 217 to 219 °C |
| CC(Oc1cccc2c1C(=O)N(C1CCC(=O)NC1=O)C2=O)c1ccc2ccccc2c1 (stereo not drawn) [Example 23, 2-(2,6-Dioxo-piperidin-3-yl)-4-(1-naphthalen-2-yl-ethoxy)-isoindole-1,3-dione] | 174 to 176 °C |
| COc1ccc(COc2cccc3c2C(=O)N(C2CCC(=O)NC2=O)C3=O)cc1 (stereo not drawn) [Example 24, 2-(2,6-Dioxo-piperidin-3-yl)-4-(4-methoxy-benzyloxy)-isoindole-1,3-dione] | 178 to 180 °C |

Second part, the molecule after the results:

| melting point | Structure (SMILES) |
| --- | --- |
| 249 to 251 °C | O=C1CCC(N2C(=O)c3cccc(OCc4cccc(Cl)c4)c3C2=O)C(=O)N1 (stereo not drawn) [Example 4, 4-(3-Chloro-benzyloxy)-2-(2,6-dioxo-piperidin-3-yl)-isoindole-1,3-dione] |
| 239 to 241 °C | O=C1CCC(N2C(=O)c3cccc(OCc4ccc(Cl)cc4)c3C2=O)C(=O)N1 (stereo not drawn) [Example 5, 4-(4-Chloro-benzyloxy)-2-(2,6-dioxo-piperidin-3-yl)-isoindole-1,3-dione] |
| 245 to 247 °C | O=C1CCC(N2C(=O)c3cccc(OCc4ccc(Cl)c(Cl)c4)c3C2=O)C(=O)N1 (stereo not drawn) [Example 6, 4-(3,4-Dichloro-benzyloxy)-2-(2,6-dioxo-piperidin-3-yl)-isoindole-1,3-dione] |
| 278 to 280 °C | O=C1CCC(N2C(=O)c3cccc(OCc4cc(Cl)cc(Cl)c4)c3C2=O)C(=O)N1 (stereo not drawn) [Example 7, 4-(3,5-Dichloro-benzyloxy)-2-(2,6-dioxo-piperidin-3-yl)-isoindole-1,3-dione] |
| 241 to 243 °C | O=C1CCC(N2C(=O)c3cccc(OCc4cccc(F)c4)c3C2=O)C(=O)N1 (stereo not drawn) [Example 8, 4-(3-Fluoro-benzyloxy)-2-(2,6-dioxo-piperidin-3-yl)-isoindole-1,3-dione] |
| 246 to 248 °C | O=C1CCC(N2C(=O)c3cccc(OCc4cccc(Br)c4)c3C2=O)C(=O)N1 (stereo not drawn) [Example 9, 4-(3-Bromo-benzyloxy)-2-(2,6-dioxo-piperidin-3-yl)-isoindole-1,3-dione] |
| 195 to 197 °C | Cc1cccc(COc2cccc3c2C(=O)N(C2CCC(=O)NC2=O)C3=O)c1 (stereo not drawn) [Example 10, 2-(2,6-Dioxo-piperidin-3-yl)-4-(3-methyl-benzyloxy)-isoindole-1,3-dione] |
